Results: the NIST ThermoML archive (doi:10.1021/je060271a)
“And” between values parts separate entries of the source, which are not always exact repeats. Identical values can stand only once. Numbers after ± are expanded uncertainties.

Conditions: Liquid, Vibrating tube method

CCCCCCC(=O)OCC(COC(=O)CCCCCC)(COC(=O)CCCCCC)COC(=O)CCCCCC [pentaerythritol tetraheptanoate]
Conditions	mass density
303.15 K, 31425 kPa	989 ± 1.2 kg/m3
303.15 K, 31458 kPa	989.1 ± 1.2 kg/m3
303.15 K, 31487 kPa	989.1 ± 1.2 kg/m3
303.15 K, 31515 kPa	989 ± 1.2 kg/m3
303.15 K, 31543 kPa	989.1 ± 1.2 kg/m3
303.15 K, 31577 kPa	989.1 ± 1.2 kg/m3
303.15 K, 31605 kPa	989 ± 1.2 kg/m3
303.15 K, 31639 kPa	989.1 ± 1.2 kg/m3
303.15 K, 31667 kPa	989.1 ± 1.2 kg/m3
303.15 K, 31696 kPa	989.1 ± 1.2 kg/m3
303.15 K, 31724 kPa	989.2 ± 1.2 kg/m3
303.15 K, 31759 kPa	989.2 ± 1.2 kg/m3
303.15 K, 31788 kPa	989.2 ± 1.2 kg/m3
303.15 K, 31817 kPa	989.3 ± 1.2 kg/m3
303.15 K, 31846 kPa	989.3 ± 1.2 kg/m3
303.15 K, 31880 kPa	989.3 ± 1.2 kg/m3
303.15 K, 31909 kPa	989.3 ± 1.2 kg/m3
303.15 K, 31938 kPa	989.3 ± 1.2 kg/m3
303.15 K, 31973 kPa	989.4 ± 1.2 kg/m3
303.15 K, 32002 kPa	989.3 ± 1.2 kg/m3
303.15 K, 32036 kPa	989.4 ± 1.2 kg/m3
303.15 K, 32065 kPa	989.4 ± 1.2 kg/m3
303.15 K, 32094 kPa	989.3 ± 1.2 kg/m3
303.15 K, 32128 kPa	989.5 ± 1.2 kg/m3
303.15 K, 32158 kPa	989.4 ± 1.2 kg/m3
303.15 K, 32186 kPa	989.4 ± 1.2 kg/m3
303.15 K, 32221 kPa	989.4 ± 1.2 kg/m3
303.15 K, 32250 kPa	989.5 ± 1.2 kg/m3
303.15 K, 32280 kPa	989.5 ± 1.2 kg/m3
303.15 K, 32316 kPa	989.5 ± 1.2 kg/m3
303.15 K, 32345 kPa	989.5 ± 1.2 kg/m3
303.15 K, 32375 kPa	989.4 ± 1.2 kg/m3
303.15 K, 32405 kPa	989.5 ± 1.2 kg/m3
303.15 K, 32440 kPa	989.6 ± 1.2 kg/m3
303.15 K, 32470 kPa	989.6 ± 1.2 kg/m3
303.15 K, 32500 kPa	989.5 ± 1.2 kg/m3
303.15 K, 32536 kPa	989.7 ± 1.2 kg/m3
303.15 K, 32566 kPa	989.6 ± 1.2 kg/m3
303.15 K, 32602 kPa	989.7 ± 1.2 kg/m3
303.15 K, 32632 kPa	989.6 ± 1.2 kg/m3
303.15 K, 32661 kPa	989.6 ± 1.2 kg/m3
303.15 K, 32691 kPa	989.7 ± 1.2 kg/m3
303.15 K, 32727 kPa	989.7 ± 1.2 kg/m3
303.15 K, 32757 kPa	989.6 ± 1.2 kg/m3
303.15 K, 32787 kPa	989.8 ± 1.2 kg/m3
303.15 K, 32824 kPa	989.8 ± 1.2 kg/m3
303.15 K, 32854 kPa	989.8 ± 1.2 kg/m3
303.15 K, 32890 kPa	989.8 ± 1.2 kg/m3
303.15 K, 32920 kPa	989.7 ± 1.2 kg/m3
303.15 K, 32951 kPa	989.7 ± 1.2 kg/m3
303.15 K, 32984 kPa	989.9 ± 1.2 kg/m3
303.15 K, 33014 kPa	989.7 ± 1.2 kg/m3
303.15 K, 33051 kPa	989.9 ± 1.2 kg/m3
303.15 K, 33082 kPa	990 ± 1.2 kg/m3
303.15 K, 33112 kPa	989.9 ± 1.2 kg/m3
303.15 K, 33149 kPa	990 ± 1.2 kg/m3
303.15 K, 33180 kPa	990 ± 1.2 kg/m3
303.15 K, 33217 kPa	990 ± 1.2 kg/m3
303.15 K, 33248 kPa	989.9 ± 1.2 kg/m3
303.15 K, 33279 kPa	990.1 ± 1.2 kg/m3
303.15 K, 33317 kPa	990 ± 1.2 kg/m3
303.15 K, 33348 kPa	990 ± 1.2 kg/m3
303.15 K, 33381 kPa	990 ± 1.2 kg/m3
303.15 K, 33413 kPa	990 ± 1.2 kg/m3
303.15 K, 33450 kPa	990.1 ± 1.2 kg/m3
303.15 K, 33482 kPa	990 ± 1.2 kg/m3
303.15 K, 33514 kPa	990.2 ± 1.2 kg/m3
303.15 K, 33546 kPa	990.1 ± 1.2 kg/m3
303.15 K, 33584 kPa	990.1 ± 1.2 kg/m3
303.15 K, 33616 kPa	990.2 ± 1.2 kg/m3
303.15 K, 33648 kPa	990.2 ± 1.2 kg/m3
303.15 K, 33686 kPa	990.2 ± 1.2 kg/m3
303.15 K, 33718 kPa	990.2 ± 1.2 kg/m3
303.15 K, 33756 kPa	990.2 ± 1.2 kg/m3
303.15 K, 33788 kPa	990.2 ± 1.2 kg/m3
303.15 K, 33820 kPa	990.3 ± 1.2 kg/m3
303.15 K, 33852 kPa	990.3 ± 1.2 kg/m3
303.15 K, 33890 kPa	990.4 ± 1.2 kg/m3
303.15 K, 33921 kPa	990.4 ± 1.2 kg/m3
303.15 K, 33952 kPa	990.5 ± 1.2 kg/m3
303.15 K, 33993 kPa	990.4 ± 1.2 kg/m3
303.15 K, 34038 kPa	990.4 ± 1.2 kg/m3
303.15 K, 34093 kPa	990.4 ± 1.2 kg/m3
303.15 K, 34123 kPa	990.4 ± 1.2 kg/m3
303.15 K, 34208 kPa	990.5 ± 1.2 kg/m3
303.15 K, 34249 kPa	990.5 ± 1.2 kg/m3
303.15 K, 34280 kPa	990.6 ± 1.2 kg/m3
303.15 K, 34305 kPa	990.5 ± 1.2 kg/m3
303.15 K, 34336 kPa	990.6 ± 1.2 kg/m3
303.15 K, 34363 kPa	990.5 ± 1.2 kg/m3
303.15 K, 34390 kPa	990.7 ± 1.2 kg/m3
303.15 K, 34423 kPa	990.6 ± 1.2 kg/m3
303.15 K, 34452 kPa	990.7 ± 1.2 kg/m3
303.15 K, 34482 kPa	990.6 ± 1.2 kg/m3
303.15 K, 34512 kPa	990.7 ± 1.2 kg/m3
303.15 K, 34545 kPa	990.6 ± 1.2 kg/m3
303.15 K, 34553 kPa	990.8 ± 1.2 kg/m3
303.15 K, 34554 kPa	990.7 ± 1.2 kg/m3
303.15 K, 34556 kPa	990.7 ± 1.2 kg/m3
323.14 K, 99.4 kPa	955.6 ± 1.2 kg/m3 and 955.7 ± 1.2 kg/m3
323.14 K, 99.5 kPa	955.7 ± 1.2 kg/m3 and 955.6 ± 1.2 kg/m3
323.14 K, 99.7 kPa	955.7 ± 1.2 kg/m3 [middle of 4 runs]
323.14 K, 99.9 kPa	955.7 ± 1.2 kg/m3 [middle of 4 runs]
323.14 K, 100 kPa	955.7 ± 1.2 kg/m3 and 955.8 ± 1.2 kg/m3 and 955.6 ± 1.2 kg/m3
323.14 K, 100.1 kPa	955.7 ± 1.2 kg/m3
323.14 K, 100.2 kPa	955.6 ± 1.2 kg/m3 and 955.7 ± 1.2 kg/m3
323.14 K, 100.4 kPa	955.7 ± 1.2 kg/m3
323.14 K, 101.1 kPa	955.6 ± 1.2 kg/m3
323.14 K, 135.4 kPa	955.7 ± 1.2 kg/m3
323.14 K, 135.5 kPa	955.7 ± 1.2 kg/m3
323.14 K, 137.4 kPa	955.7 ± 1.2 kg/m3
